# Data reported in EP0311383B1, “Monoclonal antibody to methamphetamine, preparation of the same, assay method and assay kit of methamphetamine” (UBE INDUSTRIES, LTD., priority 1987, dated 1989).
# Where two headings read alike, the source gives them in different places.
# How the values were obtained:
# Assay type in all cases: binding, mouse
# [1] = system: monoclonal antibody MA-15 (FERM BP-1496); test: Assay test II: competitive ELISA on immobilised MA-BSA, reactivities of the monoclonal antibody with various compounds
# Protocol: (§1) First, in each analytic well of a 96-well U-bottomed ELISA plate was apportioned each 50 µl of an MA-BSA solution (2 µg/ml, dissolved in 0.05 M carbonate buffer of pH 9.8) which is the antigen for analysis prepared in Example 1, and the mixture was left to stand overnight at 4 °C (by such treatment, MA-BSA was adsorbed onto the surface of each analytic well).
# (§2) Subsequently, after each analytic well was washed with a washing solution (PBS containing 0.05 % of Tween 20), each apportioned in each analytic well, left to stand at room temperature for 2 hours, these respective analytic wells were washed with the washing solution, and the culture supernatant in each culture well of the above culture plate was apportioned each in 50 µl into these respective analytic wells and left to stand at room temperature for 2 hours (for the negative control, a supernatant obtained by culturing similarly a mixture of mouse spleen lymphocytes and mouse myeloma cells before fusion was employed; on the other hand, for the positive control, the serum of mouse used for cell fusion in the present invention diluted to 100-fold with the washing liquor was used).
# (§3) Next, each analytic well in the ELISA plate was washed, and each 50 µl of an alkaline phosphatase labeled antibody solution to mouse immunoglobulin was apportioned into each analytic well and left to stand at room temperature for 1 hour. And, after each analytic well in the ELISA plate was washed, each 100 µl of a sodium p-nitrophenylphosphate 6H₂O solution (1 mg/ml) was apportioned into each analytic well and, after the reaction at room temperature for 30 minutes, absorbance of each well at 405 nm was assayed by means of a spectrophotometer for microplate.
# (§4) In order to determine the reaction specificities of the monoclonal antibodies such as MA-7, MA-13 and MA-15, reactivities with compounds different from MA such as AP (amphetamine), EP (ephedrin), ME (methylephedrin), MPA (methoxyphenamine), PT (phentermine), norEp (norephedrin), DBED (N,N′-dibenzylethylenediamine), OH-MA (p-hydroxymethamphetamine), OH-AP (p-hydroxyamphetamine), OH-EP (p-hydr oxyephedrin), OH-norEP (p-hydroxynorephedrin), Mes (mescaline), etc. were investigated according to the same ELISA method as described above in the step (c) (however, the reagent used for assay was made two-fold in amount, and a mixed solution of 50 µl of a solution of a compound diluted at multiple stages with the washing liquor and 50 µl of a monoclonal antibody solution was used in place of the hybridoma culture supernatant).
# (§5) The reactivities of these antibodies with MA, AP, EP, ME, MPA, PT, norEp, DBED, OH-MA, OH-AP, OH-EP, OH-norEP and Mes are shown in Table 1 in terms of the reactive ratios relative to MA.
# [2] = system: monoclonal antibody MA-13 (FERM BP-1495); test: as above
# Protocol: as §1, §2, §3, §4, §5
# [3] = system: monoclonal antibody MA-7 (FERM BP-1494); test: as above
# Protocol: as §1, §2, §3, §4, §5
# [4] = system: "enzyme-labeled antibody" (peroxidase-labeled monoclonal antibody MA-15); test: Reactivity of MA analogous compounds in the competitive enzyme immunoassay with MA bound protein and enzyme-labeled antibody (Example 15)
# Protocol: The antibody in the "enzyme-labeled antibody" was obtained as the purified monoclonal antibody as shown in Reference example 2 by use of the MA-15 strain (FERM-P 1496).
# First, […] of horseradish peroxidase was dissolved in 1 ml of distilled water and 200 µl of 0.1 M sodium periodate was added, followed by standing at room temperature for 30 minutes. After the enzyme solution was dialyzed at 4 °C overnight against 1 mM acetate buffer (pH 4.5), 100 µl of 0.2 M sodium carbonate buffer (pH 9.5) was added to adjust pH to 9.5. On the other hand, 8 mg of the monoclonal antibody (MA-15) dissolved in PBS was dialyzed at 4 °C overnight against 0.01 M sodium carbonate buffer (pH 9.5). The peroxidase and the monoclonal antibody thus obtained was mixed, left to stand at room temperature for 2 hours and a half, and sodium borohydride was added to the reaction mixture, followed by standing at 4 °C for 2 hours. The peroxidase-labeled monoclonal antibody thus obtained was dialyzed at 4 °C overnight against PBS, and this was diluted to 100-fold with PBS containing 0.01 % sodium ethylmercurithiosalicylate, apportioned each in 0.2 ml into a bottle and stored under lyophilization to provide the "enzyme-labeled antibody" (10 µg/bottle) which is the assay kit of MA. During assay of MA, 0.2 ml of distilled water was added into the bottle to dissolve well the lyophilized powder, and the solution was suitable diluted with PBS before use.
# The MA-BSA which is the "MA bound protein" (bound product of MA and BSA, 5 µg/ml) was apportioned each in 100 µl into a 96-well flat-bottomed plate for immunoassay which is the solid phase support (microplate made of polystyrene produced by Nunc Co.), and left to stand under 4 °C overnight to immobilize MA-BSA onto each well. Next, for preventing non-specific adsorption of the "enzyme-labeled antibody" onto the plate, a washing solution containing 10 % calf serum (phosphate buffer of pH 7.4 containing 0.05 % of Tween 20) was placed and left to stand under room temperature for 30 minutes. Next, after washing with the same washing solution, 50 µl of the standard MA solution prepared by using the diluted urine of healthy man (produced by HYLAND DIAGNOSTIC CO.) to 5-fold with the same washing solution [(0 to 150 ng)/50 µl] and 50 µl of the "enzyme-labeled antibody" prepared in Example 1 were added at the same time into each well, followed by mixing and standing under room temperature for 30 minutes. […] Finally, each 50 µl of 2N sulfuric acid was apportioned to stop the enzymatic reaction, and absorbance of the solution after stopping of the reaction at 492 nm was assayed by use of a microplate photometer. […]
# [5] = system: "antibody carrier" (monoclonal antibody to MA on polystyrene latex); test: Latex agglutination assay with MA carrier and antibody carrier, time until agglutination is seen with naked eyes; settings: same as at 0 ppm
# Protocol: Each solution was quickly stirred with a stirring stick to carry out the reaction while moving the reaction plate, forward and backward, left and right, at a constant temperature (e.g. room temperature) for a certain period of time (e.g. 1 to 2 minutes), and the agglutination of each set formed by the reaction between the "antibody carrier" and the "MA carrier" is observed. At this time, by observing with comparison between the agglutination in the case of the set by use of the "standard MA solution" and the agglutination in the case of the set by use of the sample to be assayed, the MA content in the sample to be assayed can be known.
# A mixture of 100 µl of MA-BSA solution (400 µg/ml) with 100 µl of a polystyrene latex which is the carrier (solid components 4.0 % by weight, particle size 0.8 µm, solvent PBS was shaken at 37 °C for 3 hours to have the MA-BSA carried physically on the polystyrene latex surface to obtain the "MA carrier".
# The "MA carrier" prepared in Example 18 and the "antibody carrier " prepared in Example 19 were added dropwise each in 25 µl separately from each other onto the three sheets of reaction plates, and on the same plates were further added each 5 µl of the samples to be assayed with MA concentrations of 0.5 ppm and 1.0 ppm prepared by dilution with urine of healthy man (produced by HYLAND DIAGNOSTIC CO.) separately from each other, followed immediately by mixing of the "MA carrier", the "antibody carrier" and the sample to be assayed with a stirring stick.
# In Example 20, samples to be assayed were prepared by use of methylephedrine (ME) in place of MA and the assay was carried out, following otherwise the same procedure.
# In Example 20, samples to be assayed were prepared by use of ephedrine (EP) in place of MA and the assay was carried out, following otherwise the same procedure.
# [6] = monoclonal antibody MA-15, compound diluted at multiple stages, MA = 1
# [7] = monoclonal antibody MA-13, compound diluted at multiple stages, MA = 1
# [8] = monoclonal antibody MA-7, compound diluted at multiple stages, MA = 1
# [9] = enzyme-labeled antibody, according to Example 6, MA = 100
# [10] = concentration in sample 0.5 ppm
# [11] = concentration in sample 1.0 ppm
SMILES,"reactive ratios relative to MA [1, 6]","reactive ratios relative to MA [2, 7]","reactive ratios relative to MA [3, 8]",other results
"CC(N)C(O)c1ccc(O)cc1 (centres unmarked) [OH-norEP, p-hydroxynorephedrin]",<0.001,<0.001,<0.001,"reactive ratios relative to MA ([1]; monoclonal antibody MA-15, compound diluted at multiple stages, MA = 1, listed as p-hydroxynorephedrine): < 0.001; reactive ratios relative to MA ([2]; monoclonal antibody MA-13, compound diluted at multiple stages, MA = 1, listed as p-hydroxynorephedrine): < 0.001; reactive ratios relative to MA ([3]; monoclonal antibody MA-7, compound diluted at multiple stages, MA = 1, listed as p-hydroxynorephedrine): < 0.001"
"c1ccc(CNCCNCc2ccccc2)cc1 [DBED, N,N′-dibenzylethylenediamine]",0.0055,0.23,0.17,
"CNC(C)C(O)c1ccc(O)cc1 (centres unmarked) [OH-EP, p-hydroxyephedrine]",0.0031,<0.001,<0.001,"reactive ratios relative to MA ([2]; monoclonal antibody MA-13, compound diluted at multiple stages, MA = 1, listed as p-hydroxephedrine): < 0.001; reactive ratios relative to MA ([3]; monoclonal antibody MA-7, compound diluted at multiple stages, MA = 1, listed as p-hydroxyephedrine): < 0.001"
"CC(N)Cc1ccc(O)cc1 (centres unmarked) [OH-AP, p-hydroxyamphetamine]",<0.001,0.003,<0.001,"reactive ratios relative to MA ([1]; monoclonal antibody MA-15, compound diluted at multiple stages, MA = 1, listed as p-hydroxyamphetamine): < 0.001; reactive ratios relative to MA ([3]; monoclonal antibody MA-7, compound diluted at multiple stages, MA = 1, listed as p-hydroxyamphetamine): < 0.001"
"CNC(C)Cc1ccc(O)cc1 (centres unmarked) [OH-MA, p-hydroxymethamphetamine]",0.014,0.14,0.0039,
"CN[C@@H](C)Cc1ccccc1 [MA, methamphetamine]",1,1,1,"Reactivity (%) [4, 9]: 100%"
"CN[C@@H](C)[C@H](O)c1ccccc1 [EP, ephedrin]",0.0012,0.0025,0.0018,"time until particles of polystyrene latex were observed with naked eyes to be agglutinated [5, 10]: ≤ 30 s; time until particles of polystyrene latex were observed with naked eyes to be agglutinated [5, 11]: ≤ 30 s"
"CC(N)Cc1ccccc1 (centres unmarked) [AP, amphetamine]",,,,reactive ratios relative to MA [1]: 0.019; reactive ratios relative to MA [2]: 0.0062; reactive ratios relative to MA [3]: 0.0051; Reactivity (%) [4]: 1.8%
"CC(C)(N)Cc1ccccc1 [PT, phentermine]",0.0039,0.12,0.042,
"CC(N)C(O)c1ccccc1 (centres unmarked) [norEP, norephedrin]",<0.001,<0.001,<0.001,"reactive ratios relative to MA ([1]; monoclonal antibody MA-15, compound diluted at multiple stages, MA = 1, listed as norephedrine): < 0.001; reactive ratios relative to MA ([2]; monoclonal antibody MA-13, compound diluted at multiple stages, MA = 1, listed as norephedrine): < 0.001; reactive ratios relative to MA ([3]; monoclonal antibody MA-7, compound diluted at multiple stages, MA = 1, listed as norephedrine): < 0.001"
"CNC(C)Cc1ccccc1OC (centres unmarked) [MPA, methoxyphenamine]",0.0016,0.0037,0.023,"Reactivity (%) [4, 9]: <0.2%"
"CC([C@H](O)c1ccccc1)N(C)C (some centres unmarked) [ME, methylephedrin]",0.016,0.028,0.022,"Reactivity (%) [4, 9]: 1.2%; time until particles of polystyrene latex were observed with naked eyes to be agglutinated [5, 10]: ≤ 30 s; time until particles of polystyrene latex were observed with naked eyes to be agglutinated [5, 11]: ≤ 30 s"
"COc1cc(CCN)cc(OC)c1OC [Mes, mescaline]",,,,reactive ratios relative to MA [2]: <0.00001; reactive ratios relative to MA [3]: <0.00001
